Source: ChEMBL document CHEMBL2163248, “Classification of inhibitors of hepatic organic anion transporting polypeptides (OATPs): influence of protein expression on drug-drug interactions” (J Med Chem, 2012)
pIC50: −log10 of the molar value.

Assays:
[1] = biological target: T1, Solute carrier organic anion transporter family member 2B1 (Homo sapiens, UniProt O94956); experiment: Inhibition of human liver OATP2B1 expressed in HEK293 Flp-In cells assessed as reduction in [3H]E3S uptake at 20 uM incubated for 5 mins by scintillation counting; conditions: hek293, 5 min
T1 sequence (O94956 whole entry): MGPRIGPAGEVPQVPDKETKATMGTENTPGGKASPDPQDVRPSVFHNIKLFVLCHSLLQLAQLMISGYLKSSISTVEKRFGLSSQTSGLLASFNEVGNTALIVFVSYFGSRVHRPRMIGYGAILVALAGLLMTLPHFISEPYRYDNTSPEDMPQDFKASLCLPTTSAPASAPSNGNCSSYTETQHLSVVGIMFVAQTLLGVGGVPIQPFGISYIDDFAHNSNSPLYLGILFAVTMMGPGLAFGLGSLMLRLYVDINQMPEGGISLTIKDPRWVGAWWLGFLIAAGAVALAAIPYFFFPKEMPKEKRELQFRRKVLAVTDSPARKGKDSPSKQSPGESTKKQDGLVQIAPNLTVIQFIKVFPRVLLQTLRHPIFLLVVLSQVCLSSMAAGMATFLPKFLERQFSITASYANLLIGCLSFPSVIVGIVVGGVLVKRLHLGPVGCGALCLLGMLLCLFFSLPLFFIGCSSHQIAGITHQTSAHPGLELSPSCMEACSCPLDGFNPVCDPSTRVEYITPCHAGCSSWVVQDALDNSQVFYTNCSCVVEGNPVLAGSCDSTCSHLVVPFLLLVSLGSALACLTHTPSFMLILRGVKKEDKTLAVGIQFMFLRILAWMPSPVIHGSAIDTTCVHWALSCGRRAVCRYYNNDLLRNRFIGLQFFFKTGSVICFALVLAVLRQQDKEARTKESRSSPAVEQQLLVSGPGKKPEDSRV

OATP1B1 = biological target: T2, OATP1B1 (Homo sapiens, UniProt Q9Y6L6); experiment: (§1) Inhibition of human liver OATP1B1 expressed in HEK293 Flp-In cells assessed as reduction in E17-betaG uptake at 20 uM by scintillation counting
T2 sequence (Q9Y6L6 whole entry): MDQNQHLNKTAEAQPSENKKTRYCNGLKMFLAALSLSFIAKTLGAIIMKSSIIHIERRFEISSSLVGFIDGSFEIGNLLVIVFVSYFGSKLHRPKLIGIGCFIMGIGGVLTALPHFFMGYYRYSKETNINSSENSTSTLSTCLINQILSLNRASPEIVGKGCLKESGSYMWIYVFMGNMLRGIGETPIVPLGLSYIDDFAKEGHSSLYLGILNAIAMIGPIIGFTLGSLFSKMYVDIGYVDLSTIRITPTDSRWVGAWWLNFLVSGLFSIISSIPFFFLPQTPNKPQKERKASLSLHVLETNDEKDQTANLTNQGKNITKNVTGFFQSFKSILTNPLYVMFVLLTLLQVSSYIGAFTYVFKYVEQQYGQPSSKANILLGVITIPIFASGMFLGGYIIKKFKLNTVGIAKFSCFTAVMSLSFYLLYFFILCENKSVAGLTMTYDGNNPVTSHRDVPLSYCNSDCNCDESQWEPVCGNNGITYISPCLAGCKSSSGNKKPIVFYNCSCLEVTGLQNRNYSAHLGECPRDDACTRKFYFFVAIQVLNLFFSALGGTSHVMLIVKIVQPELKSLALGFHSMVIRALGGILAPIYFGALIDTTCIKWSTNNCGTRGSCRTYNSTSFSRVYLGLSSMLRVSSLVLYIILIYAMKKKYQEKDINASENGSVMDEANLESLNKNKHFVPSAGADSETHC

[2] = biological target: T3, Solute carrier organic anion transporter family member 1B3 (Homo sapiens, UniProt Q9NPD5); experiment: Inhibition of human liver OATP1B3 expressed in HEK293 Flp-In cells assessed as reduction in [3H]E17-betaG uptake at 20 uM incubated for 5 mins by scintillation counting; conditions: hek293, 5 min
T3 sequence (Q9NPD5 whole entry): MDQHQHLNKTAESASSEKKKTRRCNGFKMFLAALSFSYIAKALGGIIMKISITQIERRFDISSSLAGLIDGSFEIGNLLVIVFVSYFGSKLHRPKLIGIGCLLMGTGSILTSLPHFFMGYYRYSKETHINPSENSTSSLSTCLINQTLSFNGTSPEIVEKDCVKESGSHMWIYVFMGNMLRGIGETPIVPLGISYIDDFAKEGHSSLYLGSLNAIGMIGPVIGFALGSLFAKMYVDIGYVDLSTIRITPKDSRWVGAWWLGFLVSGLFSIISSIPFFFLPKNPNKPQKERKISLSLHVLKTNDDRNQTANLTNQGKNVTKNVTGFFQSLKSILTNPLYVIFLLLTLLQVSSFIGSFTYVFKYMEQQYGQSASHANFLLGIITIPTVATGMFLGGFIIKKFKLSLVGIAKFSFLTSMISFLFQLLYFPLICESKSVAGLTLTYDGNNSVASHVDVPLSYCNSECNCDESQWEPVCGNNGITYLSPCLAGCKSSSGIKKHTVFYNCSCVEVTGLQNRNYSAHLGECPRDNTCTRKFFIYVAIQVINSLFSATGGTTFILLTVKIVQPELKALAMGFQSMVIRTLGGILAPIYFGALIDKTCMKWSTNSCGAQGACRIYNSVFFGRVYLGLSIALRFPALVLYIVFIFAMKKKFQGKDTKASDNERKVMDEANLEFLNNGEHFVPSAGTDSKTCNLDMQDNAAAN

[3] = biological target: T1, Solute carrier organic anion transporter family member 2B1; experiment: Inhibition of human liver OATP2B1 expressed in HEK293 Flp-In cells assessed as reduction in [3H]E3S uptake incubated for 5 mins by scintillation counting; assay type: ADME, cell-based
[4] = Fraction unbound in plasma; assay type: ADME, cell-free
[5] = biological target: T4, Solute carrier organic anion transporter family member 1B1 (Homo sapiens, UniProt Q9Y6L6); experiment: as §1; conditions: hek293, 20 µM
T4 sequence (Q9Y6L6 whole entry): T2 sequence (Q9Y6L6 whole entry)

[6] = biological target: T4, Solute carrier organic anion transporter family member 1B1; experiment: Inhibition of human liver OATP1B1 expressed in HEK293 Flp-In cells assessed as reduction in E17-betaG uptake by scintillation counting; assay type: ADME, cell-based
[7] = biological target: T3, Solute carrier organic anion transporter family member 1B3; experiment: Activity at human liver OATP1B3 expressed in HEK293 Flp-In cells assessed as rate of compound transport per mg of protein; assay type: ADME, cell-based
OATP1B3 = biological target: T5, OATP1B3 (Homo sapiens, UniProt Q9NPD5); experiment: Activity at human liver OATP1B3 expressed in HEK293 Flp-In cells; assay type: ADME, cell-based; conditions: HEK293 Flp-In cells expressing OATP1B3
T5 sequence (Q9NPD5 whole entry): T3 sequence (Q9NPD5 whole entry)

[8] = biological target: T3, Solute carrier organic anion transporter family member 1B3; experiment: Ratio of Vmax to Km for human liver OATP1B3 expressed in HEK293 Flp-In cells assessed per mg protein; assay type: ADME, cell-based
[9] = HEK293 Flp-In cells expressing OATP1B1, probe E17-betaG

Structure (SMILES) | INH [1] [%] | inhibition at 20 µM (OATP1B1; [9]) [%] | INH [2] [%] | further results
C[C@H](CCC(=O)NCC(=O)O)[C@H]1CC[C@H]2[C@@H]3[C@H](O)C[C@@H]4C[C@H](O)CC[C@]4(C)[C@H]3C[C@H](O)[C@]12C [GLYCOCHOLIC ACID] | -9.8 | 66.4 | 29 | 
C#Cc1cccc(Nc2ncnc3cc(OCCOC)c(OCCOC)cc23)c1 [ERLOTINIB] | 93.7 |  | 27.5 | pIC50 [3]: 6.26; Cp(f) [4]: 400 nM; INH [5]: 10.6%
COc1cccc2c1C(=O)c1c(O)c3c(c(O)c1C2=O)C[C@@](O)(C(=O)CO)C[C@@H]3O[C@H]1C[C@H](N)[C@H](O)[C@H](C)O1 [DOXORUBICIN] | 49.9 | -5.8 | 26.6 | 
Cc1nccn1CC1CCc2c(c3ccccc3n2C)C1=O (stereo unspecified) [ONDANSETRON] | -8.7 | 4.8 | -3.6 | 
Cc1ccc(-c2cc(C(F)(F)F)nn2-c2ccc(S(N)(=O)=O)cc2)cc1 [CELECOXIB] | -69 |  | 22.3 | inhibition at 20 µM (OATP1B1; hek293): -3.3%
CC(=O)Oc1ccc2c(c1)Oc1cc(OC(C)=O)ccc1C21OC(=O)c2cc(C(=O)O)ccc21 | -24.9 | 70.7 | 71.1 | 
C[C@H](CCC(=O)NCCS(=O)(=O)O)[C@H]1CC[C@H]2[C@@H]3CC[C@@H]4C[C@H](O)CC[C@]4(C)[C@H]3C[C@H](O)[C@]12C [TAURODEOXYCHOLIC ACID] | 85.3 | 81.7 | 61.4 | 
N[C@@H]1C[C@H]1c1ccccc1.N[C@H]1C[C@@H]1c1ccccc1 (relative stereo) [TRANYLCYPROMINE] | 15.5 |  | -9.3 | inhibition at 20 µM (OATP1B1; hek293): -9.5%
CC1COc2c(N3CCN(C)CC3)c(F)cc3c(=O)c(C(=O)O)cn1c23 (stereo unspecified) [OFLOXACIN] | 18.4 | -8.2 | 24.5 | 
C[n+]1ccc(-c2ccccc2)cc1 | 2.4 | 14.2 | 10.8 | 
C[n+]1cc2c3c(ccc2c2ccc4cc5c(cc4c21)OCO5)OCO3 | 15 | -0.2 | 2.9 | 
CCOc1ccc(-c2nc3cc(-c4nc5cc(N6CCN(C)CC6)ccc5[nH]4)ccc3[nH]2)cc1 | 12.7 |  |  | pIC50 [6]: 4.72; inhibition at 20 µM (OATP1B1; hek293): 48.1%
CCCc1nc(C(C)(C)O)c(C(=O)OCc2oc(=O)oc2C)n1Cc1ccc(-c2ccccc2-c2nnn[nH]2)cc1 [OLMESARTAN MEDOXOMIL] | -7.9 | 60.4 |  | 
COc1ccc2c(c[n+](C)c3c4cc5c(cc4ccc23)OCO5)c1OC [CHELERYTHRINE] | 13.1 | -0.7 | 24.9 | 
CC[C@H]1OC(=O)[C@H](C)[C@@H](O[C@H]2C[C@@](C)(OC)[C@@H](O)[C@H](C)O2)[C@H](C)[C@@H](O[C@@H]2O[C@H](C)C[C@H](N(C)C)[C@H]2O)[C@](C)(OC)C[C@@H](C)C(=O)[C@H](C)[C@@H](O)[C@]1(C)O [CLARITHROMYCIN] | 5.1 | 73.1 | 53.8 | 
C[C@]12CC[C@@H]3c4ccc(O)cc4CC[C@H]3[C@@H]1CC[C@@H]2O[C@@H]1O[C@H](C(=O)O)[C@@H](O)[C@H](O)[C@H]1O [ESTRADIOL 17B GLUCURONIDE] | -12.2 | 67.9 | 69 | Vmax [7]: 10.12 pmol/min; Km (OATP1B3): 11.7 µM; Vmax/Km [8]: 0.86 µL/min
CC[C@H](C)C(=O)O[C@H]1C[C@H](O)C=C2C=C[C@H](C)[C@H](CC[C@@H](O)C[C@@H](O)CC(=O)O)[C@H]21 [PRAVASTATIN] | 36.8 |  | 5.4 | pIC50 [6]: 5.44; INH [5]: 52.2%
CCN(CC)CCCC(C)Nc1ccnc2cc(Cl)ccc12 (stereo unspecified) [CHLOROQUINE] | 23.5 | -1.4 | -7.2 | 
CSCC[C@H](NC(=O)[C@H](Cc1ccc(OS(=O)(=O)O)cc1)NC(=O)[C@@H](N)CC(=O)O)C(=O)NCC(=O)N[C@@H](Cc1c[nH]c2ccccc12)C(=O)N[C@@H](CCSC)C(=O)N[C@@H](CC(=O)O)C(=O)N[C@@H](Cc1ccccc1)C(N)=O [SINCALIDE] | 60.1 | 89.3 | 96.9 | 
S=C=NCCc1ccccc1 [PHENETHYLISOTHIOCYANATE] | -32 | -16.4 | 12.3 | 
C[n+]1ccccc1 | 12.8 | 27.9 | -2.3 | 
N[C@@H](Cc1cc(I)c(Oc2cc(I)c(O)c(I)c2)c(I)c1)C(=O)O [LEVOTHYROXINE] | 63.7 | -13.1 | 11.4 | 
